Measurements as given in patent US11117892B2, “Pyrrolo-pyridine derivative compound, method for preparing same, and pharmaceutical composition containing same as active ingredient for prevention or treatment of protein kinase-related diseases” (DAEGU-GYEONGBUK MEDICAL INNOVATION FOUNDATION, priority 2017, dated 2021).

Legend:
Experiment in all cases: scanMAX Kinase assay panel
Assay type in all cases: binding
FLT3(ITD) = conditions: 1 uM
Summary of the method: (§1)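 Using scanMAX, compound selectivity across kinases is determined. The output is % control, bounded by a DMSO control at 100% and a reference positive compound at 0%.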

IKK-epsilon = IKK-epsilon (Homo sapiens (Human), UniProt Q14164); conditions: read-out: % control
Summary of the method: as §1

HIPK2 = HIPK2 (Homo sapiens (Human), UniProt Q9H2X6); conditions: read-out: % control
Summary of the method: as §1

CDK4 = CDK4 (Homo sapiens (Human), UniProt P11802); conditions: read-out: % control
Summary of the method: as §1

FGFR3(G697C) = FGFR3(G697C) (Homo sapiens (Human), UniProt P22607, G697C); conditions: read-out: % control
Summary of the method: as §1

AMPK-alpha2 = AMPK-alpha2 (Homo sapiens (Human), UniProt P54646); conditions: read-out: % control
Summary of the method: as §1

AAK1 = AAK1 (Homo sapiens (Human), UniProt Q2M2I8); conditions: read-out: % control
Summary of the method: as §1

FGFR3 = FGFR3 (Homo sapiens (Human), UniProt P22607); conditions: read-out: % control
Summary of the method: as §1

PIK3CB = PIK3CB (Homo sapiens (Human), UniProt P42338); conditions: read-out: % control
Summary of the method: as §1

ICK = ICK (Homo sapiens (Human), UniProt Q9UPZ9); conditions: read-out: % control
Summary of the method: as §1

BRK = BRK (Homo sapiens (Human), UniProt Q13882); conditions: read-out: % control
Summary of the method: as §1

SYK = SYK (Homo sapiens (Human), UniProt P43405); conditions: read-out: % control
Summary of the method: as §1

RET(V804L) = RET(V804L) (Homo sapiens (Human), UniProt P07949, V804L); conditions: read-out: % control
Summary of the method: as §1

FGFR4 = FGFR4 (Homo sapiens (Human), UniProt P22455); conditions: read-out: % control
Summary of the method: as §1

ABL2 = ABL2 (Homo sapiens (Human), UniProt P42684); conditions: read-out: % control
Summary of the method: as §1

CSK = CSK (Homo sapiens (Human), UniProt P41240); conditions: read-out: % control
Summary of the method: as §1

[1] = target: ABL1(Q252H)-nonphosphorylated (Homo sapiens (Human), UniProt P00519, Q252H); conditions: read-out: % control
Summary of the method: as §1

SIK = SIK (Homo sapiens (Human), UniProt P57059); conditions: read-out: % control
Summary of the method: as §1

BMPR2 = BMPR2 (Homo sapiens (Human), UniProt Q13873); conditions: read-out: % control
Summary of the method: as §1

EGFR(L861Q) = EGFR(L861Q) (Homo sapiens (Human), UniProt P00533, L861Q); conditions: read-out: % control
Summary of the method: as §1

PIK3CA(E542K) = PIK3CA(E542K) (Homo sapiens (Human), UniProt P42336, E542K); conditions: read-out: % control
Summary of the method: as §1

[2] = target: ABL1(F317L)-nonphosphorylated (Homo sapiens (Human), UniProt P00519, F317L); conditions: read-out: % control
Summary of the method: as §1

WNK3 = WNK3 (Homo sapiens (Human), UniProt Q9BYP7); conditions: read-out: % control
Summary of the method: as §1

EGFR(L858R) = EGFR(L858R) (Homo sapiens (Human), UniProt P00533, L858R); conditions: read-out: % control
Summary of the method: as §1

GRK1 = GRK1 (Homo sapiens (Human), UniProt Q15835); conditions: read-out: % control
Summary of the method: as §1

AKT1 = AKT1 (Homo sapiens (Human), UniProt P31749); conditions: read-out: % control
Summary of the method: as §1

VPS34 = VPS34 (Homo sapiens (Human), UniProt Q8NEB9); conditions: read-out: % control
Summary of the method: as §1

FRK = FRK (Homo sapiens (Human), UniProt P42685); conditions: read-out: % control
Summary of the method: as §1

KIT(D816V) = KIT(D816V) (Homo sapiens (Human), UniProt P10721, D816V); conditions: read-out: % control
Summary of the method: as §1

PIK3C2G = PIK3C2G (Homo sapiens (Human), UniProt O75747); conditions: read-out: % control
Summary of the method: as §1

MST3 = MST3 (Homo sapiens (Human), UniProt Q9Y6E0); conditions: read-out: % control
Summary of the method: as §1

DRAK2 = DRAK2 (Homo sapiens (Human), UniProt O94768); conditions: read-out: % control
Summary of the method: as §1

PIK3CD = PIK3CD (Homo sapiens (Human), UniProt O00329); conditions: read-out: % control
Summary of the method: as §1

NLK = NLK (Homo sapiens (Human), UniProt Q9UBE8); conditions: read-out: % control
Summary of the method: as §1

MET = MET (Homo sapiens (Human), UniProt P08581); conditions: read-out: % control
Summary of the method: as §1

CDKL3 = CDKL3 (Homo sapiens (Human), UniProt Q8IVW4); conditions: read-out: % control
Summary of the method: as §1

LRRK2 = LRRK2 (Homo sapiens (Human), UniProt Q5S007); conditions: read-out: % control
Summary of the method: as §1

MAP3K1 = MAP3K1 (Homo sapiens (Human), UniProt Q13233); conditions: read-out: % control
Summary of the method: as §1

RIOK1 = RIOK1 (Homo sapiens (Human), UniProt Q9BRS2); conditions: read-out: % control
Summary of the method: as §1

NLK, sequence (Q9UBE8 whole entry): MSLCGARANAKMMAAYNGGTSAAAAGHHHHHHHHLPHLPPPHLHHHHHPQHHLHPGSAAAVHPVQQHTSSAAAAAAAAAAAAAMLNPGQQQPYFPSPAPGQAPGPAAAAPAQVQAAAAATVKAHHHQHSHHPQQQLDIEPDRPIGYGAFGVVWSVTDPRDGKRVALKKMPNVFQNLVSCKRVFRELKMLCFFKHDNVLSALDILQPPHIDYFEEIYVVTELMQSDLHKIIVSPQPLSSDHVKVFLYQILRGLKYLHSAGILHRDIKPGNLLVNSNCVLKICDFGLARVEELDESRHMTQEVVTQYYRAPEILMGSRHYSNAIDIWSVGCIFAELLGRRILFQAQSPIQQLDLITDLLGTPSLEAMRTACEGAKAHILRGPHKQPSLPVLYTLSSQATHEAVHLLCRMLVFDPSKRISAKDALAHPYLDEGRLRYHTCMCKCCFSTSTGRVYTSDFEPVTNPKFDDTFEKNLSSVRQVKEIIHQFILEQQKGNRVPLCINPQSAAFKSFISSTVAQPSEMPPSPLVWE
VPS34, sequence (Q8NEB9 whole entry): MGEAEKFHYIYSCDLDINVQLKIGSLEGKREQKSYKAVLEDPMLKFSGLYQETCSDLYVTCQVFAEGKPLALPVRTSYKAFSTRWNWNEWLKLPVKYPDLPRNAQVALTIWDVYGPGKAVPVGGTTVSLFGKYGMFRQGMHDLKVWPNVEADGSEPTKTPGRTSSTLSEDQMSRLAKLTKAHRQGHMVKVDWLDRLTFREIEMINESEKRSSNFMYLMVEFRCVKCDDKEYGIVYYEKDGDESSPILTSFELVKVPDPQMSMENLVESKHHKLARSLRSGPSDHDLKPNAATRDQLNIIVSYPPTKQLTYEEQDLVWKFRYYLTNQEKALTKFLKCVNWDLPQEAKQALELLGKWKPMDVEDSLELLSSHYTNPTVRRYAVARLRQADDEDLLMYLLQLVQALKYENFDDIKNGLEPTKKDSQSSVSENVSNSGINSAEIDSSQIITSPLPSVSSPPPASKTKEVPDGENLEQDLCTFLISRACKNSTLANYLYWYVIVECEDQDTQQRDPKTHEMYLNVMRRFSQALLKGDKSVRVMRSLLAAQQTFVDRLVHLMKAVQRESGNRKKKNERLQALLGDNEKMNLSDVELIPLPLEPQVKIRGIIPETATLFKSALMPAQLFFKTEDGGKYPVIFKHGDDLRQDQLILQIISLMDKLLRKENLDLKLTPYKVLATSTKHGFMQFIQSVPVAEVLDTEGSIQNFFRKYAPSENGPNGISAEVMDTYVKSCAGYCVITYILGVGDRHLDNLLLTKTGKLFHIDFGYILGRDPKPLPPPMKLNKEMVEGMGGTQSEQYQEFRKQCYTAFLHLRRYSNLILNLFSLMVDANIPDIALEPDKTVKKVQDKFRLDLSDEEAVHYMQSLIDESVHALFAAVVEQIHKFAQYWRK
RET(V804L), sequence (P07949 29-1114 V804L): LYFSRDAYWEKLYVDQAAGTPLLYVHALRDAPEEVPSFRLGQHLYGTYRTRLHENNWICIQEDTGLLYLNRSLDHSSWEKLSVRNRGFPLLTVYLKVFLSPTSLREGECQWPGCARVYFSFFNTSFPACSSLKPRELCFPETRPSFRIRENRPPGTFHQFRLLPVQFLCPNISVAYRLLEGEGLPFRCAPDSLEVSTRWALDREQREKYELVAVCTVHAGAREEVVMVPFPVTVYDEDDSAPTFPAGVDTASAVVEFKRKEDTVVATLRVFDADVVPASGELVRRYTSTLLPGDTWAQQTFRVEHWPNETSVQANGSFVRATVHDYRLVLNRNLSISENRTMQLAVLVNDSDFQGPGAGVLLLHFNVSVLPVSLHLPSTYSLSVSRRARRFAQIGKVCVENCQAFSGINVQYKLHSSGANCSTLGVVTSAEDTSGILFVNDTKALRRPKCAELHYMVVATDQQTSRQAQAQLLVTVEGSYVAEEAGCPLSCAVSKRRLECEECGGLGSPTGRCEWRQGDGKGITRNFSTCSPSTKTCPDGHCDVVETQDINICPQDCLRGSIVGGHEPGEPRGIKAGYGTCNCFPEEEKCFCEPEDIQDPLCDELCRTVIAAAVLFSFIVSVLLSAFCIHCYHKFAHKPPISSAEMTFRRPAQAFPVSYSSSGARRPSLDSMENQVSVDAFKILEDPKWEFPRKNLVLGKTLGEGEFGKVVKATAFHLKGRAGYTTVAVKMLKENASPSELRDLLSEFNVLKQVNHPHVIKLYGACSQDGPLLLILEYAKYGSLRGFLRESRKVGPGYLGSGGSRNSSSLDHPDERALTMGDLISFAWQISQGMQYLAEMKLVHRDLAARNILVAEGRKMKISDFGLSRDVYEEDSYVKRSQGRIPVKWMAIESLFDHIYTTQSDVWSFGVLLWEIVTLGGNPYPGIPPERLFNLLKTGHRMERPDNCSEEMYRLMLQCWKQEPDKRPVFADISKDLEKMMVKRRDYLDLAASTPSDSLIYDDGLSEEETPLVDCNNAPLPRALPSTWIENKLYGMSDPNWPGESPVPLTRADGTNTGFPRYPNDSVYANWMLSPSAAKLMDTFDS
PIK3C2G, sequence (O75747 whole entry): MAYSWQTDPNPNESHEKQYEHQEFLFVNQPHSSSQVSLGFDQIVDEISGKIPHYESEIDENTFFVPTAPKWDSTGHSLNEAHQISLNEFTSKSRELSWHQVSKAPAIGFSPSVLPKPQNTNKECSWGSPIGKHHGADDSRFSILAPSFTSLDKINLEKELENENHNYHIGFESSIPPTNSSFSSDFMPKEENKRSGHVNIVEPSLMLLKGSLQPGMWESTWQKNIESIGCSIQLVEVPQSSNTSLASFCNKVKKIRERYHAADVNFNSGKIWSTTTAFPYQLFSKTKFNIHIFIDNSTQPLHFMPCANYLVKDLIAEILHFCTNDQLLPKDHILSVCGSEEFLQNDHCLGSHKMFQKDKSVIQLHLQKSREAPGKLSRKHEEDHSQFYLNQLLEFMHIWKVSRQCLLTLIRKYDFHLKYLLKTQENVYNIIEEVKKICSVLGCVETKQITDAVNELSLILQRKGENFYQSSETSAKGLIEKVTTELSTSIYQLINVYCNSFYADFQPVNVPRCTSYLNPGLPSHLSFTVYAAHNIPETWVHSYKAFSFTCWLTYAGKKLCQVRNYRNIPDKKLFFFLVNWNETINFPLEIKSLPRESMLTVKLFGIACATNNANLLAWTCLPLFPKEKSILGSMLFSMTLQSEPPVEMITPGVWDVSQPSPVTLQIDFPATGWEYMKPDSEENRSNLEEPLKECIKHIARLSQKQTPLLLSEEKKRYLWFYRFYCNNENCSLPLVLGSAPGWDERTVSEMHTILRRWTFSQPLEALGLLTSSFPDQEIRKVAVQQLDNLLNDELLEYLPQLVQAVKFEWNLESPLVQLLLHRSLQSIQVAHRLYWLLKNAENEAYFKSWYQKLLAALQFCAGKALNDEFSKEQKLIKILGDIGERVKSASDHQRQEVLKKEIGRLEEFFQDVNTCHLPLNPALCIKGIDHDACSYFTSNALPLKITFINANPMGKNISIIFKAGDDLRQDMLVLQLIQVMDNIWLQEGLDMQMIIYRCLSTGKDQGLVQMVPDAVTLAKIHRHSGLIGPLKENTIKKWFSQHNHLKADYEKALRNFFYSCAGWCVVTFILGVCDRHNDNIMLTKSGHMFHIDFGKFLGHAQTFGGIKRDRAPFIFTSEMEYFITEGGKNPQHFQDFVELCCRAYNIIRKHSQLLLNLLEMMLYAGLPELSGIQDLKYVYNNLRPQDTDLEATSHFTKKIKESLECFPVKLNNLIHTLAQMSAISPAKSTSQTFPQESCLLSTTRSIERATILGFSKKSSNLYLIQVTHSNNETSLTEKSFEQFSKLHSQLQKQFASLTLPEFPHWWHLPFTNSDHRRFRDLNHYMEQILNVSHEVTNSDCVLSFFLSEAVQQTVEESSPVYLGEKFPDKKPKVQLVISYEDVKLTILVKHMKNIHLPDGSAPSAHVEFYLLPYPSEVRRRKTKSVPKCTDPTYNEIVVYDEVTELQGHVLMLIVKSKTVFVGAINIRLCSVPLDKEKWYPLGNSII
MST3, sequence (Q9Y6E0 whole entry): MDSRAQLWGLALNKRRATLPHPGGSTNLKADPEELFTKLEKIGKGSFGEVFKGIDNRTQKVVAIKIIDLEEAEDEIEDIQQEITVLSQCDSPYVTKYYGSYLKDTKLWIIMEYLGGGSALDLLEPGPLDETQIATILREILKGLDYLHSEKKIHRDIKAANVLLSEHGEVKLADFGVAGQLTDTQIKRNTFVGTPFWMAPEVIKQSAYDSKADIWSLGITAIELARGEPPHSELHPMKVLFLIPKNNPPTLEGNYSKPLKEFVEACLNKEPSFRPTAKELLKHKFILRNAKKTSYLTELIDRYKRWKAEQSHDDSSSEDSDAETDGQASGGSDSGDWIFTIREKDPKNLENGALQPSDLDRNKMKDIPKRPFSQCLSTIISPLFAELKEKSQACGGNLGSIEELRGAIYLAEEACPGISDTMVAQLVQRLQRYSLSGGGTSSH
CSK, sequence (P41240 whole entry): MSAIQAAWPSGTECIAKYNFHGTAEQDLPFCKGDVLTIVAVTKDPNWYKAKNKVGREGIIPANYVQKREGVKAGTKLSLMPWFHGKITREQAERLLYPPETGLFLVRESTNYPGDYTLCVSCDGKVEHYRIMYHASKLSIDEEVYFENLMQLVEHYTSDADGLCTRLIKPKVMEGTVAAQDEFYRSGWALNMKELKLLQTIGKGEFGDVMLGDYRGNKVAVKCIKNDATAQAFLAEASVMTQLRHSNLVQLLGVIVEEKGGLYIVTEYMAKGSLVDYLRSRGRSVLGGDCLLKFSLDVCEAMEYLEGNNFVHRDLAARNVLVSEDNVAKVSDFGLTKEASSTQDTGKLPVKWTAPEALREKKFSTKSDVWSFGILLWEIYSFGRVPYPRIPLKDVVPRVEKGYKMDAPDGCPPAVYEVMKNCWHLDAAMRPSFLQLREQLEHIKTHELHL

CCNc1cc(Nc2ccc(C(=O)N3CCC(N4CCOCC4)CC3)cc2OC)nc2[nH]cc(C(F)(F)F)c12 [Example 57, (4-((4-(ethylamino)-3-(trifluoromethyl)-1H-pyrrolo[2,3-b]pyridin-6-yl)amino)-3-methoxyphenyl) (4-morpholinopiperidin-1-yl)methanone] was tested, and the “% control” value (FLT3(ITD)) was 79%, the remaining binding at 1 µM (IKK-epsilon) was 96% and the remaining binding at 1 µM (HIPK2) was 100%. For the same compound, the remaining binding at 1 µM (CDK4) was 100%, the remaining binding at 1 µM (FGFR3(G697C)) was 78% and the remaining binding at 1 µM (AMPK-alpha2) was 98%. For the same compound, the remaining binding at 1 µM (AAK1) was 54%, the remaining binding at 1 µM (FGFR3) was 94% and the remaining binding at 1 µM (PIK3CB) was 100%. It also gave a remaining binding at 1 µM (ICK) of 100%, a remaining binding at 1 µM (BRK) of 94% and a remaining binding at 1 µM (SYK) of 68%. It also gave a remaining binding at 1 µM (RET(V804L)) of 91%, a remaining binding at 1 µM (FGFR4) of 92% and a remaining binding at 1 µM (ABL2) of 98%. It also gave a remaining binding at 1 µM (CSK) of 76%, a remaining binding at 1 µM [1] of 54% and a remaining binding at 1 µM (SIK) of 90%. The remaining binding at 1 µM (BMPR2) was 84%, the remaining binding at 1 µM (EGFR(L861Q)) was 94% and the remaining binding at 1 µM (PIK3CA(E542K)) was 100%. For the same compound, the remaining binding at 1 µM [2] was 86%, the remaining binding at 1 µM (WNK3) was 100% and the remaining binding at 1 µM (EGFR(L858R)) was 100%. It also gave a remaining binding at 1 µM (GRK1) of 94%, a remaining binding at 1 µM (AKT1) of 97% and a remaining binding at 1 µM (VPS34) of 79%. It also gave a remaining binding at 1 µM (FRK) of 92%, a remaining binding at 1 µM (KIT(D816V)) of 83% and a remaining binding at 1 µM (PIK3C2G) of 100%. The remaining binding at 1 µM (MST3) was 84%, the remaining binding at 1 µM (DRAK2) was 69% and the remaining binding at 1 µM (PIK3CD) was 100%. For the same compound, the remaining binding at 1 µM (NLK) was 84%, the remaining binding at 1 µM (MET) was 100% and the remaining binding at 1 µM (CDKL3) was 61%. The remaining binding at 1 µM (LRRK2) was 48%, the remaining binding at 1 µM (MAP3K1) was 79% and the remaining binding at 1 µM (RIOK1) was 94%.

CCNc1cc(Nc2ccc(C(=O)N3CCC(N4CCOCC4)CC3)cc2OC)nc2[nH]cc(C#N)c12 [Example 18, 4-(ethylamino)-6-((2-methoxy-4-(4-morpholinopiperidine-1-carbonyl)phenyl)amino)-1H-pyrrolo[2,3-b]pyridine-3-carbonitrile] was tested, and the “% control” value (FLT3(ITD)) was 92%, the remaining binding at 1 µM (IKK-epsilon) was 96% and the remaining binding at 1 µM (HIPK2) was 68%. For the same compound, the remaining binding at 1 µM (CDK4) was 100%, the remaining binding at 1 µM (FGFR3(G697C)) was 88% and the remaining binding at 1 µM (AMPK-alpha2) was 100%. The remaining binding at 1 µM (AAK1) was 69%, the remaining binding at 1 µM (FGFR3) was 93% and the remaining binding at 1 µM (PIK3CB) was 89%. For the same compound, the remaining binding at 1 µM (ICK) was 84%, the remaining binding at 1 µM (BRK) was 95% and the remaining binding at 1 µM (SYK) was 66%. The remaining binding at 1 µM (RET(V804L)) was 97%, the remaining binding at 1 µM (FGFR4) was 80% and the remaining binding at 1 µM (ABL2) was 93%. The remaining binding at 1 µM (CSK) was 93%, the remaining binding at 1 µM [1] was 95% and the remaining binding at 1 µM (SIK) was 100%. It also gave a remaining binding at 1 µM (BMPR2) of 44%, a remaining binding at 1 µM (EGFR(L861Q)) of 85% and a remaining binding at 1 µM (PIK3CA(E542K)) of 96%. The remaining binding at 1 µM [2] was 95%, the remaining binding at 1 µM (WNK3) was 82% and the remaining binding at 1 µM (EGFR(L858R)) was 100%. For the same compound, the remaining binding at 1 µM (GRK1) was 81%, the remaining binding at 1 µM (AKT1) was 100% and the remaining binding at 1 µM (VPS34) was 96%. The remaining binding at 1 µM (FRK) was 94%, the remaining binding at 1 µM (KIT(D816V)) was 82% and the remaining binding at 1 µM (PIK3C2G) was 92%. It also gave a remaining binding at 1 µM (MST3) of 88%, a remaining binding at 1 µM (DRAK2) of 27% and a remaining binding at 1 µM (PIK3CD) of 100%. It also gave a remaining binding at 1 µM (NLK) of 84%, a remaining binding at 1 µM (MET) of 100% and a remaining binding at 1 µM (CDKL3) of 100%. It also gave a remaining binding at 1 µM (LRRK2) of 1.1%, a remaining binding at 1 µM (MAP3K1) of 90% and a remaining binding at 1 µM (RIOK1) of 94%.
